Data published in patent US8088822B2, “Use of fenretinide or bioactive derivatives thereof and pharmaceutical compositions comprising the same” (priority 2008, dated 2012).
Where two headings read alike, the source gives them in different places.

How the values were obtained:
[1] = system: CD34+CD38− CML stem cells (LSC); experiment: Apoptosis (Annexin V/7AAD, FACS) of CML stem cells; format: cell-based, human
From the text: (§1) Fresh bone marrow (BM) cells were obtained from 38 patients with CML and 5 non-leukemic donors, 25 AML, 17 ALL, and 8 normal specimens with informed consent according to the Declaration of Helsinki. Approval was obtained from Institutional Review Board at the School of Medicine in Shanghai Jiao Tong University. BM mononuclear cells were isolated by Ficoll density gradient centrifugation (Shanghai Second Reagent Factory, Shanghai, China). CD34^+ Cell were selected using EasySep® Human CD34 Positive Selection kit (Stem Cell Technologies, Vancouver, BC, Canada) according to the manufacturer's instructions. The purity of CD34 cells ranged between 92 and 98% in all samples detennined by flow cytometry. The CD34^+ cells were cultured in a serum-free medium (StemPro 34; Gibco BRL, Gaithersburg, Md.) supplemented with growth factors (PeproTech, London, United Kingdom) (20). The growth factors consisted of GM-CSF (200 pg/mL), G-CSF (1 ng/mL); SCF (200 pg/mL); LIF (50 pg/mL), MIP-1α (200 pg/mL) and IL-6 (1 ng/mL).
(§2) Primitive AML and CML subpopulations (CD34^+ cells) were identified using CD34-PE in combination with CD38-APC, and followed by double-labeling with 7AAD and Annexin V antibodies for apoptosis assessment. The CD34^+ cells were first stained with antibodies against the surface markers CD34-PE and CD38-APC (Beckman Coulter, Fullerton, Calif.) and incubated at room temperature for 15 minutes. Cells were then washed with cold PBS and resuspended in 200 μL annexin V 1×binding buffer (10 mM HEPES/NaOH, pH 7.4, 140 mM NaCl, 2.5 mM CaCl2), 5 μL AnnexinV-FITC (BD Phanningen, San Diego, Calif.) and 7-aminoactinomycin (7-AAD, 0.25 mg/mL) (Molecular Probes, Eugene, Oreg.). Subsequently, the samples were incubated at room temperature for 15 minutes and analyzed by flow cytometry.
It would be of significance to find out the subpopulations specifically targeted by fenretinide. We divided the CML patient specimens into mononuclear cells and CD34^+ cells. The CD34^+ CML cells are primitive cells including CML stem and progenitor cells. Upon treated with fenretinide, CD34^+ CML cells were further subdivided into CD34^+CD38^− enriched with CML stem cells and CD34^+CD38^+ with CML progenitor cells. After gating on primitive CML subfractions, 7AAD and Annexin V antibodies were utilized for apoptosis assessment by FACS. […] The difference of apoptosis rates between CD34^+CD38^+ and CD34^+CD38^− cells was significant (p<0.001). The effects of the fenretinide exposures on the leukemia stem cells (LSC) and normal hematopoietic stem cells (HSC) in the CD34^+CD38^− cells were shown in a representative specimen (FIG. 3B). The specimens in 5 CML patients had the similar effects on the LSC and in 5 non-leukemic donors had the similar patterns as that of nonnal HSC.

[2] = system: AML CD34+ cells; experiment: Apoptosis/viability of AML CD34+ cells (annexin-V FITC/7AAD); format: cell-based, human; settings: for viability at 5 µM: 5 μM fenretinide
From the text: as §1, §2
Primary acute leukemia cells from specimens including AML and ALL are mostly quiescent, especially for the subpopulations of leukemic CD34^+ cells (Guan and Hogge, 2000). To verify if this quiescent leukemia cells are sensitive to fenretinide, we compared the effects of fenretinide on primary leukemia versus normal specimens during short-term suspension culture. CD34^+ cells were isolated from primary acute leukemia specimens, and subjected to DNA content analysis through propidium iodide staining and followed by flow cytometry. The majority of isolated CD34^+ cells from AML and ALL were in G0/G1 phase of the cell cycle, indicating the quiescent feature of leukemia CD34^+ cells (FIG. 4A). Then, apoptosis profiles of AML CD34^+ cells and normal CD34^+ cells were examined through annexin-V FITC and 7AAD double staining (FIG. 4B).

[3] = system: ALL CD34+ cells; experiment: Viability of ALL CD34+ cells; format: cell-based; settings: Homo sapiens
From the text: as §1
Primitive AML and CML subpopulations (CD34^+ cells) were identified using CD34-PE in combination with CD38-APC, and followed by double-labeling with 7AAD and Annexin V antibodies for apoptosis assessment. […] Subsequently, the samples were incubated at room temperature for 15 minutes and analyzed by flow cytometry. […]

[4] = system: CD34+CD38− acute leukemia stem and CD34+CD38+ progenitor population; experiment: Apoptosis of acute leukemia (AML and ALL) stem and progenitor subpopulations; format: cell-based, human; settings: AML and ALL specimens
Protocol: as §2
Furthermore, we examined whether fenretinide can preferentially target highly quiescent LSCs with CD34^+CD38^− immunophenotyte and leukemia progenitor cells with CD34^+CD38^+ for AML and most ALL specimens. Due to the difficulty of obtaining adequate normal CD34^+CD38^− cells, our apoptosis data of normal specimens came from CD34^− cell populations. Also, we used Ara-C and VCR (vincristine) as controls to test the apoptosis of leukemia stem cells, which were thought to be resistant to these chemotherapeutics.

[5] = system: oxidative and ER stress genes; experiment: Real-time quantitative RT-PCR of oxidative and ER stress genes in CML CD34+ cells; format: cell-based, human; settings: fenretinide-treated CML CD34+ cells
From the text: Real-time quantitative RT-PCR was preformed on ABI7900 thermocycler detection system using SYBR Green I (Applied Biosystems, Foster City, Calif.).
Fenretinide preferentially targets more primitive leukemia stem and progenitor cells (Example 3 and Example 4), and mechanisms are involved in ROS-dependent apoptosis in a panel of leukemia cell lines. Additionally, the process of fenretinide-induced apoptosis is modulated by a large number of oxidative and ER stress genes (Example 5 and Example 6). It is of significant value to further evaluate whether fenretinide exerts similar mechanism on primitive leukemia stem and progenitor cells. Thus, we isolated CD34^+ cells from CML patients, which were subjected to real-time quantitative RT-PCR for oxidative and ER stress genes identified based on microarray analysis of fenretinide-treated K562 cells.

With `CC1=C(/C=C/C(C)=C/C=C/C(C)=C/C(=O)Nc2ccc(O)cc2)C(C)(C)CCC1` [fenretinide, N-(4-hydroxyphenyl)retinamide] the “apoptosis of CD34+CD38− cells” value ([1]; 2 μM fenretinide) was 60.58%±2.76%, the “apoptosis of CD34+CD38− cells” value ([1]; 4 μM fenretinide) was 63.75%±8.49% and the “apoptosis of CD34+CD38− cells” value ([1]; 6 μM fenretinide) was 62.83%±9.72%. The “reduction of LSC in the CD34+CD38− cells” value ([1]; representative specimen) was 80.3%, the “apoptosis in the LSC (CML stem cells)” value ([1]; representative specimen, fenretinide alone or co-treatment with imatinib) was 53.3% and the viability at 5 µM ([2]; Homo sapiens, 18 h, read-out: viability of most resistant AML specimen (AML #8)) was 89.7%. For the same compound, the viability at 5 µM ([2]; Homo sapiens, 18 h, read-out: viability of most sensitive AML specimen (AML #20)) was 0.5%, the viability at 5 µM ([2]; Homo sapiens, 18 h in culture, read-out: mean viability of AML CD34+ cells) was 45.4% and the viability at 7.5 µM ([2]; Homo sapiens, 7.5 μM fenretinide, read-out: mean viability of AML CD34+ specimens) was 12.2%. The “apoptosis induction in AML CD34+ cells” value ([2]; short-term suspension culture) was “time- and dose-dependant manner”, the viability at 5 µM ([3]; 5 μM fenretinide) was 58% and the viability at 7.5 µM ([3]; 7.5 μM fenretinide) was 20.9%. The “apoptosis in CD34+CD38− acute leukemia stem population versus CD34+CD38+ progenitor population” value [4] was “more apoptosis” and the “expression of genes involved in oxidative and ER stress” value [5] was “highly up-regulated”.
